Test results taken from ChEMBL document CHEMBL4837269, “Identification of 6-Hydroxypyrimidin-4(1H)-one-3-carboxamides as Potent and Orally Active APJ Receptor Agonists” (ACS Med Chem Lett, 2021).
pEC50: −log10 of the molar value.

Tests used:
Apelin receptor [1] = target: T1, Apelin receptor (Rattus norvegicus, UniProt Q9JHG3); test: Agonist activity at rat APJ receptor expressed in HEK293T cells assessed as compound stimulated inhibition of forskolin stimulated cAMP production incubated for 30 mins by HTRF assay; type: functional, cell-based
T1 sequence (Q9JHG3 whole entry): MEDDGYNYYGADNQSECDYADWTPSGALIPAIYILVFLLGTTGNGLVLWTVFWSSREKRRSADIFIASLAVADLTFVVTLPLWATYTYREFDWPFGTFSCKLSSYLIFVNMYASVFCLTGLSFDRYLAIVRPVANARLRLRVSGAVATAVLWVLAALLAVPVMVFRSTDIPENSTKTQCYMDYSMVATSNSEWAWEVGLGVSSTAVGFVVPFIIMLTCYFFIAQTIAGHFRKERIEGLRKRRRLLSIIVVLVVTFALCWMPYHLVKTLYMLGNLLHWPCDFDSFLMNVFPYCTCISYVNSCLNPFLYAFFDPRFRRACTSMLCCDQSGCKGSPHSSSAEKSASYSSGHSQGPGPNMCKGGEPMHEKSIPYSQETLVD

[2] = Permeability of the compound at pH 5.5 by PAMPA assay; type: ADME; details: for Papp: read-out: permeability
[3] = Metabolic stability in human liver microsomes assessed as parent compound remaining measured after 10 mins in presence of NADPH; type: ADME, Microsome; details: for remaining at 10 min: liver microsomes, read-out: Stabilty; for percent parent compound remaining: microsomes, 10 min
Apelin receptor [4] = target: T2, Apelin receptor (Homo sapiens, UniProt P35414); test: Agonist activity at human APJ receptor expressed in HEK293T cells assessed as compound stimulated inhibition of forskolin stimulated cAMP production incubated for 30 mins by HTRF assay; type: functional, cell-based
T2 sequence (P35414 whole entry): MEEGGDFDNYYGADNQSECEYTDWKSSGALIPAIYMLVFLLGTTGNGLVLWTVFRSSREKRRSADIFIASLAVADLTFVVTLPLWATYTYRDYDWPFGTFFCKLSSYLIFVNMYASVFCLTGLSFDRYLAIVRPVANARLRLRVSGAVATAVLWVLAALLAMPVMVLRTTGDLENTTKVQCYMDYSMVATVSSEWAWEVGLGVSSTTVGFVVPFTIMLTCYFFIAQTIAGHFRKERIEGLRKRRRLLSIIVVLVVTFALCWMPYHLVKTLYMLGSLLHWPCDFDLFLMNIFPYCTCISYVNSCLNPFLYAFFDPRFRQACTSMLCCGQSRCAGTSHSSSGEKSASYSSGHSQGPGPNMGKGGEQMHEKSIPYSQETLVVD

[5] = Metabolic stability in rat liver microsomes assessed as parent compound remaining measured after 10 mins in presence of NADPH; type: ADME, Microsome; details: for remaining at 10 min: liver microsomes, read-out: Stabilty; for Stabilty: microsomes, 10 min
[6] = Permeability of the compound at pH 7.4 by PAMPA assay; type: ADME; details: for Papp: read-out: permeability
Rattus norvegicus [7] = test: Hemodynamic activity in isoflurane-anesthetized Sprague-Dawley rat model of acute pressure-volume loop assessed as change in heart rate at 10 microg/kg/min administered as iv infusion for 15 mins (reference value: 3 +/- 1.6 %); type: functional; details: dose 10 µg/kg/min, 0.25 h
Rattus norvegicus [8] = test: Hemodynamic activity in isoflurane-anesthetized Sprague-Dawley rat model of acute pressure-volume loop assessed as change in stroke volume at 10 microg/kg/min administered as iv infusion for 15 mins (reference value: -0.6 %); type: functional; details: dose 10 µg/kg/min, 0.25 h
[9] = AUC(0 to 24 hrs) in Sprague-Dawley rat at 1 mg/kg, po via gavage measured after 48 hrs by LC/MS/MS analysis; type: ADME, organism-based; parameters: route oral, dose 1 mg/kg, time 48 hrs; details: in vivo
Rattus norvegicus [10] = test: Hemodynamic activity in isoflurane-anesthetized Sprague-Dawley rat model of acute pressure-volume loop assessed as change in cardiac output at 10 microg/kg/min administered as iv infusion for 15 mins (reference value: 2.3 +/- 2.1 %); type: functional; details: dose 10 µg/kg/min, 0.25 h
Rattus norvegicus [11] = test: Hemodynamic activity in isoflurane-anesthetized Sprague-Dawley rat model of acute pressure-volume loop assessed as change in blood pressure at 10 microg/kg/min administered as iv infusion for 15 mins (reference value: -0.2 %); type: functional; details: dose 10 µg/kg/min, 0.25 h
[12] = Cmax in Sprague-Dawley rat at 1 mg/kg, po via gavage measured after 48 hrs by LC/MS/MS analysis; type: ADME, organism-based; parameters: route oral, time 48 hrs, dose 1 mg/kg; details: in vivo
[13] = Protein binding in Sprague-Dawley rat plasma; type: ADME, cell-free; details: read-out: PPB (converted)
Rattus norvegicus [14] = test: Hemodynamic activity in isoflurane-anesthetized Sprague-Dawley rat model of acute pressure-volume loop assessed as change in dp/dT at 10 microg/kg/min administered as iv infusion for 15 mins (reference value: 3.3 +/- […]); type: functional; details: dose 10 µg/kg/min, 0.25 h
[15] = Free drug concentration in Sprague-Dawley rat plasma; type: ADME, cell-free
[16] = Half life in Sprague-Dawley rat at 1 mg/kg, po via gavage measured after 48 hrs by LC/MS/MS analysis; type: ADME, organism-based; details: in vivo

Structure (SMILES) | pEC50 (Apelin receptor [1]) | Papp [2] | remaining at 10 min [3] | pEC50 (Apelin receptor [4]) | remaining at 10 min [5] | Papp [6] | other results
CCCCc1nc(=O)c(C(=O)N2CCC(c3ccccn3)C2)c(O)n1-c1c(OC)cccc1OC (stereo in doubt; 11a) | 9.43 | 4.2 ×10⁻⁶ cm/s | 82% | 9.77 | 68% | – | –
CCCCc1nc(=O)c(C(=O)N2CC[C@H](c3ccc(Cl)cn3)C2)c(O)n1-c1c(OC)cccc1OC | 10.20 | – | 100% | 10.49 | 35% | – | –
CCCCc1nc(=O)c(C(=O)N2CCC(c3ccncc3)C2)c(O)n1-c1c(OC)cccc1OC (stereo in doubt; 13b) | 8.40 | – | – | 8.57 | – | – | permeability [2]: 19 nm/s; percent parent compound remaining [3]: 90%; Stabilty [5]: 80%; permeability [6]: 5 nm/s
CCCCc1[nH]c(=O)c(C(=O)NCc2ccccc2)c(O)c1-c1c(OC)cccc1OC | 5.32 | – | – | 5.96 | – | – | –
CCCCc1nc(=O)c(C(=O)N2CC[C@@H](c3ccccc3)C2)c(O)n1-c1c(OC)cccc1OC | 9.47 | 32.5 ×10⁻⁶ cm/s | 97% | – | 26% | 2.3 ×10⁻⁶ cm/s | –
CCCCc1[nH]c(=O)c(C(=O)N(C)CCc2ccc(Cl)cc2)c(O)c1-c1c(OC)cccc1OC | 8.00 | – | – | 8.03 | – | – | –
CCCCc1[nH]c(=O)c(C(=O)N2CC[C@H](c3ccccc3)C2)c(O)c1-c1c(OC)cccc1OC | 8.74 | 84 ×10⁻⁶ cm/s | 99% | 9.00 | 73% | 1.8 ×10⁻⁶ cm/s | –
CCOCc1nc(=O)c(C(=O)N2CC[C@H](c3ccccc3)C2)c(O)n1-c1c(OC)cccc1OC | 9.21 | 6.4 ×10⁻⁶ cm/s | – | 9.36 | – | 0.3 ×10⁻⁶ cm/s | –
CCCCc1[nH]c(=O)c(C(=O)N2CC[C@@H](c3ccccc3)C2)c(O)c1-c1c(OC)cccc1OC | 8.51 | 63 ×10⁻⁶ cm/s | 100% | 8.74 | 69% | 7.3 ×10⁻⁶ cm/s | –
CCCCc1[nH]c(=O)c(C(=O)N(CCC)Cc2ccccc2)c(O)c1-c1c(OC)cccc1OC | 6.82 | – | – | 6.92 | – | – | –
CCCCc1[nH]c(=O)c(C(=O)NCC)c(O)c1-c1c(OC)cccc1OC | < 4.52 | – | – | < 4.52 | – | – | –
CCCCc1nc(=O)c(C(=O)N2CCC(c3cccnc3)C2)c(O)n1-c1c(OC)cccc1OC (stereo in doubt; 12a) | 9.48 | 2.3 ×10⁻⁶ cm/s | 82% | 9.54 | 65% | – | –
CCCCc1nc(=O)c(C(=O)N2CC[C@@H](c3ccc(Cl)cn3)C2)c(O)n1-c1c(OC)cccc1OC | 10.46 | – | 100% | 10.57 | 43% | – | Activity (Rattus norvegicus [7]): 4.6%; Activity (Rattus norvegicus [8]): 67%; AUC(0-t) at 48 h [9]: 1.9 µM·h; Activity (Rattus norvegicus [10]): 11.7%; Activity (Rattus norvegicus [11]): -2.8%; Cmax [12]: 3.2 µM; fraction unbound [13]: 0.022; Activity (Rattus norvegicus [14]): 9.1%; Cp(f) [15]: 6.4 nM; half-life [16]: 192 min
CCCCc1nc(=O)c(C(=O)N2CCC(c3cccnc3)C2)c(O)n1-c1c(OC)cccc1OC (stereo in doubt; 12b) | 9.40 | – | – | 9.52 | – | 0.1 ×10⁻⁶ cm/s | permeability [2]: 21 nm/s; percent parent compound remaining [3]: 89%; Stabilty [5]: 70%
CCCCc1nc(=O)c(C(=O)N2CC[C@H](c3ccccc3)C2)c(O)n1-c1c(OC)cccc1OC | 9.57 | 52.3 ×10⁻⁶ cm/s | 85% | – | 25% | 1.2 ×10⁻⁶ cm/s | –
CCCCc1nc(=O)c(C(=O)N2CCC(c3ccccn3)C2)c(O)n1-c1c(OC)cccc1OC (stereo in doubt; 11b) | 9.82 | – | – | 9.92 | – | 0.6 ×10⁻⁶ cm/s | permeability [2]: 78 nm/s; Stabilty [5]: 62%
CCCCc1nc(=O)c(C(=O)N2CCC(c3ccc(Cl)cc3)C2)c(O)n1-c1c(OC)cccc1OC (stereo in doubt; 10b) | 9.51 | – | – | 9.62 | – | – | permeability [2]: 380 nm/s; percent parent compound remaining [3]: 90%; Stabilty [5]: 8%; permeability [6]: 63 nm/s
CCOCc1[nH]c(=O)c(-c2nnc(Cc3ccc(C)cn3)o2)c(O)c1-c1c(OC)cccc1OC | 10.62 | – | – | 10.64 | – | – | –
CCCCc1[nH]c(=O)c(C(=O)N(C)C)c(O)c1-c1c(OC)cccc1OC | 5.92 | – | – | 5.96 | – | – | –
CCCCc1nc(=O)c(C(=O)N2CCC(c3ccc(Cl)cc3)C2)c(O)n1-c1c(OC)cccc1OC (stereo in doubt; 10a) | 9.77 | 30 ×10⁻⁶ cm/s | 97% | 9.82 | 7% | 7.4 ×10⁻⁶ cm/s | –
CCCCc1nc(=O)c(C(=O)N2CCC(c3ccncc3)C2)c(O)n1-c1c(OC)cccc1OC (stereo in doubt; 13a) | 8.68 | – | 93% | 8.82 | 83% | 0.3 ×10⁻⁶ cm/s | permeability [2]: 9 nm/s
